Test results reported in US5543396A, “Proline phosphonate derivatives” (priority 1994, dated 1996).

Assays:
DPP-IV = DPP-IV (Homo sapiens, UniProt P27487); experiment: Stability of inhibited DPP-IV; settings: after 24 h; excess inhibitor removed by centrifugation
Protocol: Excess inhibitors in the inhibited enzyme solution were removed by centrifugation of the diluted enzyme solution twice using Amicon microconcentrators.
Stability of Inhibited DPP-IV. […] Excess inhibitors was removed from diluted solutions of inactivated enzyme by centrifugation three times at 0° C. for 1 h each in Amicon Centricon-10 microconcentrators following addition of buffer. The enzyme activity of solution was assayed at various intervals as described above.

[1] = Half-lives for spontaneous hydrolysis of inhibitors in buffer; assay type: physicochemical; settings: 0.05 M Tris, pH 7.8 buffer, 8% Me2SO, 23° C.
Text: Determination of Half-Lives for Spontaneous Hydrolysis of Inhibitors in Buffer. […] The spontaneous hydrolysis was monitored by following the increase in absorbance at 270 nm for phosphonates with phenoxy groups, at 280 nm for compounds with 4-.chlorophenoxy groups or at 277 nm for the 4-fluorophenoxy derivative. Half-lives were obtained from first-order plots of ln (Af -At) vs time, where At is the absorbance of the mixture at time t, and Af is the final absorbance of phosphonate monophenyl ester and phenol (or corresponding compounds). This was obtained from the absorbance of the solution which had remained constant for a few hours. All the plots gave correlation coefficients of 0.95 or greater.

Chymotrypsin = Chymotrypsin (Bos taurus, UniProt P00766); experiment: Inhibition of chymotrypsin, incubation method; assay type: biochemical, bovine
Protocol: Inactivation rates of serine proteases by aryl diesters of peptidyl derivatives of α-aminoalkylphosphonates were measured by the incubation method. An aliquot of inhibitor (25 or 50 μl) in Me2 SO was added to a buffered enzyme solution (0.01-2.3 μM) to initiate the inactivation. Aliquots (50 μl) were withdrawn at various intervals and the residual enzymatic activity was measured. Me2 SO concentration in the reaction mixture was 8-12% (v/v). A 0.1M HEPES, 0.01M CaCl2, pH 7.5 buffer was utilized for trypsin and trypsin-like enzymes. A 0.1M HEPES, 0.5M NaCl, pH 7.5, was utilized for the other serine proteases. Peptide thioesters or peptide nitroanilides with the appropriate sequences were used as substrates for various serine proteases. All peptide thioesters hydrolysis rates were measured with the assay mixture containing 4,4'-dithiodipyridine (ε324 =19800M^-1 cm^-1). Peptide 4-nitroanilide hydrolysis was measured at 410 nm (ε410 =8800 M ^-1 cm^-1). First order inactivation rate constants (kobs) were obtained from plots of ln vt /vo vs time, and the correlation coefficients were greater then 0.98.
Enzyme Irreversible Inactivation--Incubation Method. An aliquot of inhibitor (25 or 50 μL) in Me2 SO was added to 0.28-0.55 mL of a buffered enzyme solution (0.83 munits for DPP-IV; 2.1 units for acetylcholinesterase; 0.07-4.5 μM for other enzymes) to initiate the inactivation reaction. Aliquots (20-250 μL) were withdrawn at various intervals and the residual enzymatic activity was measured at 23° C. as described below. The buffers were: 0.05M Tris, pH 7.8 for DPP-IV; 0.1M Hepes, 0.01M CaCl2, pH 7.5 for bovine trypsin; 0.1M Hepes, 0.5M NaCl, pH 7.5 for bovine chymotrypsin, PPE, and HLE; 0.1M phosphate, pH 7.5 for acetylcholinesterase; 50 mM Tris-HCl, 2 mM EDTA, 5 mM cysteine, (freshly prepared) pH 7.5 buffer for papain and 100 mM KH2 PO4, 1.33 mM EDTA, 2.7 mM cysteine (freshly prepared), pH 6.0 buffer for cathepsin B. The Me2 SO concentration in the reaction mixtures was 8-9% (v/v). The inhibitor concentrations are shown in the appropriate table. Stock solutions of substrates were prepared in Me2 SO and stored at -20° C. DPP-IV was assayed with TFA.Ala-Pro-AFC. Papain and cathepsin B were assayed with Bz-Arg-AMC and Z-Arg-Arg-AMC, respectively. The release of AMC were followed fluorometrically (excitation at 380 nm and emmision at 460 nm for AMC). Acetylcholinesterase was assayed with acetylthiocholine iodide in the presence of DTNB at 412 nm. Trypsin was assayed with Z-Phe-Gly-Arg-.rho.NA.HCl (0.09 mM), chymotrypsin was assayed with Suc-Phe-Thr-Phe-.rho.NA (0.48 mM), PPE and HLE were assayed with Suc-Ala-Ala-Ala-.rho.NA (0.44 mM) and MeO-Suc-Ala-Ala-Pro-Val-.rho.NA (0.24 mM), respectively. Peptide .rho.-nitroanilide hydrolysis was measured at 410 nm (ε410 =8,800 M ^1 cm^-1). […]

Human Placenta DPP-IV = target: T1, Human Placenta DPP-IV (Homo sapiens, UniProt P27487); experiment: Inhibition of DPP-IV by peptidyl phosphonates, incubation method; assay type: biochemical
T1 construct: from tissue; host or cells: human placenta
T1 sequence (P27487 whole entry): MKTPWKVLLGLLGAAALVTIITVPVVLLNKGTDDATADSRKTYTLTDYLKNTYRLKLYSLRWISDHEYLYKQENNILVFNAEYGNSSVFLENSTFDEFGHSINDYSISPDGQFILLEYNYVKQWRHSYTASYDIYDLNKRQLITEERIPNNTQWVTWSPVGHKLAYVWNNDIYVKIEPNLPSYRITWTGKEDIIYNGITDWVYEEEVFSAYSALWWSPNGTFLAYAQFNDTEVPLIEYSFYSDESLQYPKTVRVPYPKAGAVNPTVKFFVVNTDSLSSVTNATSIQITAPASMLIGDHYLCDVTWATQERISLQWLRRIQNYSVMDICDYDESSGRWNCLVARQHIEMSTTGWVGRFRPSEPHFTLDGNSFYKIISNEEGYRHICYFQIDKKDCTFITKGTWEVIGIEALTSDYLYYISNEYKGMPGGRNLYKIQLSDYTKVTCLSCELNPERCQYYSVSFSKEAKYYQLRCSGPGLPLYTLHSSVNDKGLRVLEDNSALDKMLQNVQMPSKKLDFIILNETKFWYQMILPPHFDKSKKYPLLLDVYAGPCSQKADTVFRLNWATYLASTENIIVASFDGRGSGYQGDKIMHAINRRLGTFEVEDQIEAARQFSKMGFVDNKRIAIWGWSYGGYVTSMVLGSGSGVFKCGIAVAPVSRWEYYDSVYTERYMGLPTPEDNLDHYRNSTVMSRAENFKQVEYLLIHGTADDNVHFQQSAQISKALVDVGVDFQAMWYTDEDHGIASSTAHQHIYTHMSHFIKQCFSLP
Protocol: Standard Assay of DPP-IV. DPP-IV was assayed in 450 μL of 50 mM Tris, pH 7.8, 0.2 mM Ala-Pro-AFC (freshly diluted from a 20 mM stock in DMF), and 5 μL of enzyme solution at 30° C. or in 2 mL of buffer, 0.2 mM Ala-Pro-AFC (diluted from 8 mM stock in Me2 SO) at 23° C. Fluorescence was measured at 400 nm excitation and 505 nm emission. One unit of DPP-IV is defined as the amount of enzyme that will hydrolyze 1.0 μmole of Ala-Pro-AFC per min at 25° C. and pH 7.8.
Enzyme Irreversible Inactivation--Incubation Method. An aliquot of inhibitor (25 or 50 μL) in Me2 SO was added to 0.28-0.55 mL of a buffered enzyme solution (0.83 munits for DPP-IV; 2.1 units for acetylcholinesterase; 0.07-4.5 μM for other enzymes) to initiate the inactivation reaction. Aliquots (20-250 μL) were withdrawn at various intervals and the residual enzymatic activity was measured at 23° C. as described below. The buffers were: 0.05M Tris, pH 7.8 for DPP-IV; 0.1M Hepes, 0.01M CaCl2, pH 7.5 for bovine trypsin; 0.1M Hepes, 0.5M NaCl, pH 7.5 for bovine chymotrypsin, PPE, and HLE; 0.1M phosphate, pH 7.5 for acetylcholinesterase; 50 mM Tris-HCl, 2 mM EDTA, 5 mM cysteine, (freshly prepared) pH 7.5 buffer for papain and 100 mM KH2 PO4, 1.33 mM EDTA, 2.7 mM cysteine (freshly prepared), pH 6.0 buffer for cathepsin B. […] The inhibitor concentrations are shown in the appropriate table. Stock solutions of substrates were prepared in Me2 SO and stored at -20° C. DPP-IV was assayed with TFA.Ala-Pro-AFC. Papain and cathepsin B were assayed with Bz-Arg-AMC and Z-Arg-Arg-AMC, respectively. The release of AMC were followed fluorometrically (excitation at 380 nm and emmision at 460 nm for AMC). Acetylcholinesterase was assayed with acetylthiocholine iodide in the presence of DTNB at 412 nm. Trypsin was assayed with Z-Phe-Gly-Arg-.rho.NA.HCl (0.09 mM), chymotrypsin was assayed with Suc-Phe-Thr-Phe-.rho.NA (0.48 mM), PPE and HLE were assayed with Suc-Ala-Ala-Ala-.rho.NA (0.44 mM) and MeO-Suc-Ala-Ala-Pro-Val-.rho.NA (0.24 mM), respectively. Peptide .rho.-nitroanilide hydrolysis was measured at 410 nm (ε410 =8,800 M ^1 cm^-1). Pseudo first-order inactivation rate constants (kobs) were obtained from plots of In vt /vo vs time, and the correlation coefficients were greater than 0.98.

[2] = Hydrolysis in human plasma; assay type: in vitro ADME
Text: Furthermore, they show excellent stability in human plasma. For example Suc-Val-Pro-Phe^P (OPh)2 has a hydrolysis half-time in human plasma of about 20 hrs. […] Thus they can be used under a variety of conditions. Phosphonates have the additional advantage of being very stable in plasma and will have a high effectiveness in […] vivo due to their long lifetimes.

Chain of DPP-IV (P27487 whole entry): as above

Molecule	recovery of enzyme activity of inhibited DPP-IV (DPP-IV)	t1/2, half-life for hydrolysis [1] [h]	inhibition of chymotrypsin, in words (Chymotrypsin)	kobs /[I] Chymotrypsin (Chymotrypsin; [I] 0.42 mM, 0.1 M Hepes, 0.5 M NaCl, pH 7.5, 8-9% Me2SO, 23° C., Suc-Phe-Thr-Phe-pNA 0.48 mM) [M⁻¹ s⁻¹]	% Inhibition 2 min (Human Placenta DPP-IV; [I] 0.12 mM, 2 min incubation, 0.05 M Tris pH 7.8, 5% Me2SO, 23° C., substrate TFA.Ala-Pro-AFC 0.190 mM) [%]	% Inhibition 30 min (Human Placenta DPP-IV; [I] 0.12 mM, 30 min incubation, 0.05 M Tris pH 7.8, 5% Me2SO, 23° C., substrate TFA.Ala-Pro-AFC 0.190 mM) [%]	kobs /[I] for DPP-IV (Human Placenta DPP-IV; [I] 0.42 mM, 0.05 M Tris pH 7.8, 8% Me2SO, 23° C., substrate TFA.Ala-Pro-AFC 0.2 mM) [M⁻¹ s⁻¹]	inhibition of DPP-IV, in words (Human Placenta DPP-IV; inhibitor 0.12 mM, 30 min incubation)	hydrolysis half-time in human plasma [2]
C[C@H](N)C(=O)N1CCCC1P(=O)(Oc1ccc(Cl)cc1)Oc1ccc(Cl)cc1.Cl (stereo partly drawn) [Compound 12, Di(4-chlorophenyl) Alanylpyrrolidine-2-phosphonate Hydrochloride]	did not regain enzyme activity	5.3	very slowly	26	0	100	28	showed some inhibitory potency	
Suc-Val-Pro-Phe^P (OPh)2									about 20 hrs
